In PubChem BioAssay (NCI):
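Growth conditions: 96-well plates. Treatment: test compound, 48 hours, 5 concentrations. Analysis: linear interpolation between bracketing concentrations; unreached endpoints set to highest concentration. GI50 marks 50% less growth. TGI: total growth inhibition.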

How the values were obtained:
Test in all cases: DTP human tumour cell line panel, 48 h
786-0 renal = tested on: 786-0 renal
A498 renal = tested on: A498 renal
A549 NSCLC = tested on: A549 NSCLC
ACHN renal = tested on: ACHN renal
BT-549 breast = tested on: BT-549 breast
CAKI-1 renal = tested on: CAKI-1 renal
CCRF-CEM leukemia = tested on: CCRF-CEM leukemia
COLO 205 colon = tested on: COLO 205 colon
DU-145 prostate = tested on: DU-145 prostate
EKVX NSCLC = tested on: EKVX NSCLC
HCC-2998 colon = tested on: HCC-2998 colon
HCT-116 colon = tested on: HCT-116 colon
HCT-15 colon = tested on: HCT-15 colon
HL-60(TB) leukemia = tested on: HL-60(TB) leukemia
HOP-62 NSCLC = tested on: HOP-62 NSCLC
HOP-92 NSCLC = tested on: HOP-92 NSCLC
HS 578T breast = tested on: HS 578T breast
HT29 colon = tested on: HT29 colon
IGROV1 ovarian = tested on: IGROV1 ovarian
K-562 leukemia = tested on: K-562 leukemia
KM12 colon = tested on: KM12 colon
LOX IMVI melanoma = tested on: LOX IMVI melanoma
M14 melanoma = tested on: M14 melanoma
MALME-3M melanoma = tested on: MALME-3M melanoma
MCF7 breast = tested on: MCF7 breast
MDA-MB-231 breast = tested on: MDA-MB-231 breast
MDA-MB-435 = tested on: MDA-MB-435
MDA-MB-468 breast = tested on: MDA-MB-468 breast
MOLT-4 leukemia = tested on: MOLT-4 leukemia
NCI-H226 lung = tested on: NCI-H226 lung
NCI-H23 lung = tested on: NCI-H23 lung
NCI-H460 lung = tested on: NCI-H460 lung
NCI-H522 lung = tested on: NCI-H522 lung
NCI/ADR-RES ovarian = tested on: NCI/ADR-RES ovarian
OVCAR-3 ovarian = tested on: OVCAR-3 ovarian
OVCAR-4 ovarian = tested on: OVCAR-4 ovarian
OVCAR-5 ovarian = tested on: OVCAR-5 ovarian
OVCAR-8 ovarian = tested on: OVCAR-8 ovarian
PC-3 prostate = tested on: PC-3 prostate
RPMI-8226 leukemia = tested on: RPMI-8226 leukemia
RXF 393 renal = tested on: RXF 393 renal
SF-268 CNS = tested on: SF-268 CNS
SF-295 CNS = tested on: SF-295 CNS
SF-539 CNS = tested on: SF-539 CNS
SK-MEL-2 melanoma = tested on: SK-MEL-2 melanoma
SK-MEL-28 melanoma = tested on: SK-MEL-28 melanoma
SK-MEL-5 melanoma = tested on: SK-MEL-5 melanoma
SK-OV-3 ovarian = tested on: SK-OV-3 ovarian
SN12C renal = tested on: SN12C renal
SNB-19 CNS = tested on: SNB-19 CNS
SNB-75 CNS = tested on: SNB-75 CNS
SR leukemia = tested on: SR leukemia
SW-620 colon = tested on: SW-620 colon
T-47D breast = tested on: T-47D breast
TK-10 renal = tested on: TK-10 renal
U251 CNS = tested on: U251 CNS
UACC-257 melanoma = tested on: UACC-257 melanoma
UACC-62 melanoma = tested on: UACC-62 melanoma
UO-31 renal = tested on: UO-31 renal

Question: What does the source list for `COc1cc2nc(SCc3ccccc3)n(-c3ccc(Cl)cc3)c(=O)c2cc1OC`?
Answer: GI50 (786-0 renal): 3.84 µM; TGI (786-0 renal): 15.6 µM; GI50 (A498 renal): 19.6 µM; TGI (A498 renal): 45.2 µM; GI50 (A549 NSCLC): 8.69 µM; TGI (A549 NSCLC): 29.6 µM; GI50 (ACHN renal): 4.69 µM; TGI (ACHN renal): 19 µM; GI50 (BT-549 breast): 22 µM; TGI (BT-549 breast): 82.4 µM; GI50 (CAKI-1 renal): 3.34 µM; TGI (CAKI-1 renal): 13.7 µM; GI50 (CCRF-CEM leukemia): 38.1 µM; TGI (CCRF-CEM leukemia): > 100 µM; GI50 (COLO 205 colon): 29.4 µM; TGI (COLO 205 colon): > 100 µM; GI50 (DU-145 prostate): 22.3 µM; TGI (DU-145 prostate): 98.1 µM; GI50 (EKVX NSCLC): 16.6 µM; TGI (EKVX NSCLC): 50.5 µM; GI50 (HCC-2998 colon): 22.5 µM; TGI (HCC-2998 colon): > 100 µM; GI50 (HCT-116 colon): 5.09 µM; TGI (HCT-116 colon): 23.4 µM; GI50 (HCT-15 colon): 19 µM; TGI (HCT-15 colon): > 100 µM; GI50 (HL-60(TB) leukemia): > 100 µM; TGI (HL-60(TB) leukemia): > 100 µM; GI50 (HOP-62 NSCLC): 4.65 µM; TGI (HOP-62 NSCLC): 18.4 µM; GI50 (HOP-92 NSCLC): 16.1 µM; TGI (HOP-92 NSCLC): 49 µM; GI50 (HS 578T breast): 6.63 µM; TGI (HS 578T breast): 48.6 µM; GI50 (HT29 colon): 40.4 µM; TGI (HT29 colon): > 100 µM; GI50 (IGROV1 ovarian): 20.8 µM; TGI (IGROV1 ovarian): 80.4 µM; GI50 (K-562 leukemia): 12 µM; TGI (K-562 leukemia): 35.6 µM; GI50 (KM12 colon): > 100 µM; TGI (KM12 colon): > 100 µM; GI50 (LOX IMVI melanoma): 5.77 µM; TGI (LOX IMVI melanoma): 18.9 µM; GI50 (M14 melanoma): 42.7 µM; TGI (M14 melanoma): > 100 µM; GI50 (MALME-3M melanoma): 19.1 µM; TGI (MALME-3M melanoma): 68.5 µM; GI50 (MCF7 breast): 14.5 µM; TGI (MCF7 breast): > 100 µM; GI50 (MDA-MB-231 breast): 16.7 µM; TGI (MDA-MB-231 breast): 79.1 µM; GI50 (MDA-MB-435): 64.1 µM; TGI (MDA-MB-435): > 100 µM; GI50 (MDA-MB-468 breast): 7.61 µM; TGI (MDA-MB-468 breast): 45.6 µM; GI50 (MOLT-4 leukemia): 25.2 µM; TGI (MOLT-4 leukemia): > 100 µM; GI50 (NCI-H226 lung): 3.55 µM; TGI (NCI-H226 lung): 22.7 µM; GI50 (NCI-H23 lung): 11.2 µM; TGI (NCI-H23 lung): 30.7 µM; GI50 (NCI-H460 lung): 8.29 µM; TGI (NCI-H460 lung): 33.2 µM; GI50 (NCI-H522 lung): 18.9 µM; TGI (NCI-H522 lung): 88.2 µM; GI50 (NCI/ADR-RES ovarian): 6.25 µM; TGI (NCI/ADR-RES ovarian): 22.7 µM; GI50 (OVCAR-3 ovarian): 15.8 µM; TGI (OVCAR-3 ovarian): 44.5 µM; GI50 (OVCAR-4 ovarian): 3.54 µM; TGI (OVCAR-4 ovarian): 16.9 µM; GI50 (OVCAR-5 ovarian): 31 µM; TGI (OVCAR-5 ovarian): > 100 µM; GI50 (OVCAR-8 ovarian): 17.5 µM; TGI (OVCAR-8 ovarian): 66.6 µM; GI50 (PC-3 prostate): 16.1 µM; TGI (PC-3 prostate): > 100 µM; GI50 (RPMI-8226 leukemia): 66.1 µM; TGI (RPMI-8226 leukemia): > 100 µM; GI50 (RXF 393 renal): 4.99 µM; TGI (RXF 393 renal): 27.8 µM; GI50 (SF-268 CNS): 10.3 µM; TGI (SF-268 CNS): 44.4 µM; GI50 (SF-295 CNS): 4.36 µM; TGI (SF-295 CNS): 17.8 µM; GI50 (SF-539 CNS): 7.07 µM; TGI (SF-539 CNS): 20.1 µM; GI50 (SK-MEL-2 melanoma): 36.8 µM; TGI (SK-MEL-2 melanoma): > 100 µM; GI50 (SK-MEL-28 melanoma): 21.8 µM; TGI (SK-MEL-28 melanoma): > 100 µM; GI50 (SK-MEL-5 melanoma): 47.9 µM; TGI (SK-MEL-5 melanoma): > 100 µM; GI50 (SK-OV-3 ovarian): 16.6 µM; TGI (SK-OV-3 ovarian): 53 µM; GI50 (SN12C renal): 11.5 µM; TGI (SN12C renal): 75.8 µM; GI50 (SNB-19 CNS): 12.6 µM; TGI (SNB-19 CNS): 36 µM; GI50 (SNB-75 CNS): 2.27 µM; TGI (SNB-75 CNS): 7.86 µM; GI50 (SR leukemia): 16.5 µM; TGI (SR leukemia): > 100 µM; GI50 (SW-620 colon): 20.1 µM; TGI (SW-620 colon): > 100 µM; GI50 (T-47D breast): 28.1 µM; TGI (T-47D breast): > 100 µM; GI50 (TK-10 renal): 20.3 µM; TGI (TK-10 renal): 44.9 µM; GI50 (U251 CNS): 8.14 µM; TGI (U251 CNS): 31.8 µM; GI50 (UACC-257 melanoma): 39.2 µM; TGI (UACC-257 melanoma): > 100 µM; GI50 (UACC-62 melanoma): 42.8 µM; TGI (UACC-62 melanoma): > 100 µM; GI50 (UO-31 renal): 13.9 µM; TGI (UO-31 renal): 51.7 µM
